Assay results published in article PMC9570898, “Comparing Variants of the Cell-Penetrating Peptide sC18 to Design Peptide-Drug Conjugates” (Molecules, 2022).
No end group written: not given here.

Legend:
[1] = Peptide interaction with anionic giant unilamellar vesicles; conditions: 1 µM CF-labeled peptide, 30 min, room temperature, fluorescence microscopy, Oyster405 dye outflow
Method: A thin agarose layer is necessary to build GUVs. Therefore, 1% super low melting agarose was melted in deionized water by heating up in a microwave. Afterward, 200 µL were coated on a clean slide and dried at 50 °C for 30 min on a heating plate; 10 µL of respective lipid solution was added onto the agarose layer and subsequently distributed and dried for 1 h using an exicator under vacuum to get rid of the chloroform. For staining the lipid layer, 0.2 mol % Atto550 was added. Afterward, a sealing ring was added around the pink lipid film. Lipids were hydrated with dextran buffer (10 mM HEPES buffer (pH 7.4), 50 mM KCl, 50 mM NaCl and 1 mg/mL Dextran) containing 3 µL Oyster405 (Luminaris GmbH, Münster, Germany) encapsulating the blue dye. Slides were incubated for 2 h at RT. […] For fluorescence microscopy analysis, lipids were transferred into an eight-well Ibidi® plate; 40 µL of respective GUV solution was mixed with 1 µM peptide solutions and filled up to 100 µL with dextran buffer. […] Afterward, GUVs were analyzed using a BZ-X800E microscope (Keyence, Osaka, Japan) followed by image processing with ImageJ.
Figure 4 Peptide interaction with […] (GUVs) composed of DOPC/DOPE/DOPG (40:30:30); 1 µM solutions of sC18 variants were incubated with GUVs for 30 min and inspected using a fluorescence microscope (Keyence). […]

[2] = tested on: HeLa cells; test: Cellular uptake by flow cytometry in HeLa cells; format: cell-based, human; conditions: 1 and 10 µM CF-labeled peptide, 30 min, 37 °C, serum-free medium, triplicate n = 3
Method: (§1) Monolayer cellular uptake was quantified using flow cytometry. Cells were seeded onto a 24-well plate (HeLa: 90,000, HEK293: 100,000 and MCF-7 130,000 cells per well) and grown to 80–90% confluency. Then, cells were incubated with the labeled peptides/conjugates in a serum-free medium at 37 °C for various incubation times, and subsequently washed twice with PBS and detached with indicator-free trypsin resuspended in an indicator-free serum-containing medium. The cell suspension was transferred into a 96-well FACS plate and fluorescence was then measured by a Guava easyCyte flow cytometer (Merck, Darmstadt, Germany).The blue laser was used for all measurements, FSC (1137–1538), SSC (3020–4086), Grn-B (647–875) and Red-B (694–939). Cellular autofluorescence of untreated control cells was subtracted.

[3] = tested on: HEK293 cells; test: Cellular uptake by flow cytometry in HEK293 cells; format: cell-based, human; conditions: 1 and 10 µM CF-labeled peptide, 30 min, 37 °C, serum-free medium, triplicate n = 3
Method: as §1

RLRKLLRKFLRK-NH2 [sC18*^R,L]
interaction with anionic GUVs [1]: strongest accumulation leading to membrane disruption events and complete dye outflow from the vesicles | cellular uptake [2]: highly significant and enhanced internalization | cellular uptake [3]: highly significant and enhanced internalization
